Measurements reported in US11279681B2, “3-alkyl bicyclic [4,5,0] hydroxamic acids as HDAC inhibitors” (Valo Health, Inc., priority 2015, dated 2022).

These compounds were tested against T1, HDAC6 (Homo sapiens, UniProt Q9UBN7) (assay: In vitro histone deacetylase assay: enzymatic HDAC6 electrophoretic mobility shift assay). Conditions: full length human recombinant HDAC6, 1 nM enzyme, 2 μM peptide substrate RHKK(Ac)-NH2, 25° C.; read-out: Inhibitory Concentration (IC50) Values for Representative Compounds against HDAC6, Activity Range.
T1 sequence (Q9UBN7 1-1215): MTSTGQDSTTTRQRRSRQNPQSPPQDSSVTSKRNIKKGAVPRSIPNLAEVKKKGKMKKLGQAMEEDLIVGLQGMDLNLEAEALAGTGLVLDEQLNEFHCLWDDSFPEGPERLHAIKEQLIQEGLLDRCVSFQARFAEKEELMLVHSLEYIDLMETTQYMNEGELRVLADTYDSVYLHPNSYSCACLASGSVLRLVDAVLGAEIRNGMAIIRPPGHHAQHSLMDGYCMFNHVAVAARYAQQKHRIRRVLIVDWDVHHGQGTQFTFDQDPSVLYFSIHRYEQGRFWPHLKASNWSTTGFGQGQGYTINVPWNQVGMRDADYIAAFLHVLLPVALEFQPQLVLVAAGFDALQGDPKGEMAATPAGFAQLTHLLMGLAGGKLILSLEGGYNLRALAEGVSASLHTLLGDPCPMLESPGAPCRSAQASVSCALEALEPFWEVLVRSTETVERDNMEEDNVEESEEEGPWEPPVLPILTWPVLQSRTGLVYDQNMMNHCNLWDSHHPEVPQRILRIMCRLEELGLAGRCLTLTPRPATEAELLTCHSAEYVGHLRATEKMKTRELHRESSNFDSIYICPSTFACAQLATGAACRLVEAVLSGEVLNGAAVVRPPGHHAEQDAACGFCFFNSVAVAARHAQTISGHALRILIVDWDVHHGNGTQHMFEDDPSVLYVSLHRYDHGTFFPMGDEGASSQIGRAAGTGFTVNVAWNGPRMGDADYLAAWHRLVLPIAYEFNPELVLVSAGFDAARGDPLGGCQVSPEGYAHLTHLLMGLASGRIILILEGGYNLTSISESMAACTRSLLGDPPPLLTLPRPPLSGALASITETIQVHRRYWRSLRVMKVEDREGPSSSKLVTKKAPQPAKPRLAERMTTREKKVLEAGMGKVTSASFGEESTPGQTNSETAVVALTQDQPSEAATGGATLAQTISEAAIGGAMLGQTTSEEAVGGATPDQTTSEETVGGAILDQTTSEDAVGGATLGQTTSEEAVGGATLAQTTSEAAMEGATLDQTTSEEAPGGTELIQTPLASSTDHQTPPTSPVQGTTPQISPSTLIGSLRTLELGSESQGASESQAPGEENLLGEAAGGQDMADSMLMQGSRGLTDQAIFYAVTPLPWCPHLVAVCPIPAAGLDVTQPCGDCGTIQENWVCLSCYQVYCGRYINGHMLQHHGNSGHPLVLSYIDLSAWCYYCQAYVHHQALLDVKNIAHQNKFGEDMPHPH
Type: biochemical
Description: The enzymatic HDAC6 assay was performed using electrophoretic mobility shift assay. […] The enzymatic reactions were assembled in 384 well plates in a total volume of 25 μL in a reaction buffer composing: 100 mM HEPES, pH7.5, 25 mM KCl, 0.1% bovine serum albumin, 0.01% Triton X-100, 1% DMSO (from compounds) 2 μM of the fluorescently labeled peptide substrate and enzyme. The enzyme was added at a final concentration of 1 nM. The peptide substrate RHKK(Ac)-NH2 was used. The compounds were tested at 12 concentrations spaced by 3× dilution intervals. Negative control samples (0%-inhibition in the absence of inhibitor) and positive control samples (100%-inhibition) were assembled in replicates of four in each assay plate. The reactions were incubated at 25° C. and quenched by the addition of 45 μL of termination buffer (100 mM HEPES, pH 7.5, 0.01% Triton X-100, 0.05% SDS).
The terminated assay plates were analyzed on LabChip® 3000 microfluidic electrophoresis instrument (Perkin Elmer/Caliper Life Sciences). The fluorescence intensity of the electrophoretically separated de-acetylated product and substrate peptide was measured. Activity in each sample was determined as the product to sum ratio (PSR): P/(S+P), where P is the peak height of the product peptide and S is the peak height of the substrate peptide. Percent inhibition (Pinh) is determined using the following equation:
Pinh=(PSR0%−PSRinh)/(PSR0%−PSR100%)*100, where PSRinh is the product sum ratio in the presence of inhibitor, PSR0% is the average product sum ration in the absence of inhibitor and PSR100% is the average product sum ratio in 100%-inhibition control samples. The IC50 values of inhibitors were determined by fitting the %-inhibition curves with 4 parameter dose-response model using XLfit 4 software.
Work on `CC(c1ccc(F)cc1)N1Cc2ccc(C(=O)NO)cc2OC[C@@H]1C` (stereo partly drawn) [(3S)-4-(1-(4-fluorophenyl)ethyl)-N-hydroxy-3-methyl-2,3,4,5-tetrahydrobenzo[f][1,4]oxazepine-8-carboxamide] yielded an IC50 of 0.1 to 0.5 µM. In the case of `C[C@H]1COc2cc(C(=O)NO)ccc2CN1CCC1CCCO1` (stereo partly drawn) [(3S)-N-hydroxy-3-methyl-4-(2-(tetrahydrofuran-2-yl)ethyl)-2,3,4,5-tetrahydrobenzo[f][1,4]oxazepine-8-carboxamide], the IC50 is reported as at most 0.1 µM. Compound `CC1CCCCN1C(=O)N1Cc2ccc(C(=O)NO)cc2OC[C@@H]1C` (stereo partly drawn) [(3S)-N-hydroxy-3-methyl-4-(2-methylpiperidine-1-carbonyl)-2,3,4,5-tetrahydrobenzo[f][1,4]oxazepine-8-carboxamide] has an IC50 of at most 0.1 µM. For `CC1COCCN1C(=O)N1Cc2ccc(C(=O)NO)cc2OC[C@@H]1C` (stereo partly drawn) [(3S)-N-hydroxy-3-methyl-4-(3-methylmorpholine-4-carbonyl)-2,3,4,5-tetrahydrobenzo[f][1,4]oxazepine-8-carboxamide], the IC50 was at most 0.1 µM. `C[C@H]1COc2cc(C(=O)NO)ccc2CN1CC1CCCO1` (stereo partly drawn) [(3S)-N-hydroxy-3-methyl-4-((tetrahydrofuran-2-yl)methyl)-2,3,4,5-tetrahydrobenzo[f][1,4]oxazepine-8-carboxamide] gave an IC50 of at most 0.1 µM. `COC1CCN(C(=O)N2Cc3ccc(C(=O)NO)cc3OC[C@@H]2C)C1` (stereo partly drawn) [(3S)-N-hydroxy-4-(3-methoxypyrrolidine-1-carbonyl)-3-methyl-2,3,4,5-tetrahydrobenzo[f][1,4]oxazepine-8-carboxamide] gave an IC50 of at most 0.1 µM. `COC[C@H]1CN(C(=O)Nc2ccc(OC)cc2)Cc2ccc(C(=O)NO)cc2O1` [(R)-N8-hydroxy-2-(methoxymethyl)-N4-(4-methoxyphenyl)-2,3-dihydrobenzo[f][1,4]oxazepine-4,8(5H)-dicarboxamide] showed an IC50 of 0.1 to 0.5 µM. For `COc1ccc(NC(=O)N2Cc3ccc(C(=O)NO)cc3O[C@H](C(C)C)C2)cc1` [(R)-N8-hydroxy-2-isopropyl-N4-(4-methoxyphenyl)-2,3-dihydrobenzo[f][1,4]oxazepine-4,8(5H)-dicarboxamide], the IC50 was over 0.5 µM. Compound `COc1ccc(NC(=O)N2Cc3ccc(C(=O)NO)cc3O[C@H](c3ccccc3)C2)cc1` [(R)-N8-hydroxy-N4-(4-methoxyphenyl)-2-phenyl-2,3-dihydrobenzo[f][1,4]oxazepine-4,8(5H)-dicarboxamide] has an IC50 of 0.1 to 0.5 µM. Work on `COC[C@@H]1COc2cc(C(=O)NO)ccc2CN1c1ccccc1C` [(R)-N-hydroxy-3-(methoxymethyl)-4-(o-tolyl)-2,3,4,5-tetrahydrobenzo[f][1,4]oxazepine-8-carboxamide] yielded an IC50 of at most 0.1 µM. Compound `COC[C@@H]1COc2cc(C(=O)NO)ccc2CN1C` [(R)-N-hydroxy-3-(methoxymethyl)-4-methyl-2,3,4,5-tetrahydrobenzo[f][1,4]oxazepine-8-carboxamide] has an IC50 of at most 0.1 µM. In the case of `COC[C@@H]1COc2cc(C(=O)NO)ccc2CN1c1ccccc1` [(R)-N-hydroxy-3-(methoxymethyl)-4-phenyl-2,3,4,5-tetrahydrobenzo[f][1,4]oxazepine-8-carboxamide], the IC50 is reported as 0.1 to 0.5 µM. Work on `COC[C@@H]1COc2cc(C(=O)NO)ccc2CN1Cc1ccc(OC)cc1` [(R)-N-hydroxy-4-(4-methoxybenzyl)-3-(methoxymethyl)-2,3,4,5-tetrahydrobenzo[f][1,4]oxazepine-8-carboxamide] yielded an IC50 of at most 0.1 µM. In the case of `COc1ccc(CN2CCOc3cc(C(=O)NO)ccc3[C@H]2C)cc1` [(R)-N-hydroxy-4-(4-methoxybenzyl)-5-methyl-2,3,4,5-tetrahydrobenzo[f][1,4]oxazepine-8-carboxamide], the IC50 is reported as over 0.5 µM. With `C[C@@H]1CN(C)Cc2ccc(C(=O)NO)cc2O1` [(R)—N-hydroxy-2,4-dimethyl-2,3,4,5-tetrahydrobenzo[f][1,4]oxazepine-8-carboxamide] the IC50 was over 0.5 µM. Work on `C[C@@H]1CNCc2ccc(C(=O)NO)cc2O1` [(R)—N-hydroxy-2-methyl-2,3,4,5-tetrahydrobenzo[f][1,4]oxazepine-8-carboxamide] yielded an IC50 of over 0.5 µM. With `C[C@@H]1COc2cc(C(=O)NO)ccc2CN1C` [(R)—N-hydroxy-3,4-dimethyl-2,3,4,5-tetrahydrobenzo[f][1,4]oxazepine-8-carboxamide] the IC50 was at most 0.1 µM. Compound `C[C@@H]1COc2cc(C(=O)NO)ccc2CN1` [(R)—N-hydroxy-3-methyl-2,3,4,5-tetrahydrobenzo[f][1,4]oxazepine-8-carboxamide] has an IC50 of 0.1 to 0.5 µM. For `O=C(NO)c1ccc2c(c1)OC[C@H](Cc1ccccc1)N(C(=O)N1CCOCC1)C2` [(S)-3-benzyl-N-hydroxy-4-(morpholine-4-carbonyl)-2,3,4,5-tetrahydrobenzo[f][1,4]oxazepine-8-carboxamide], the IC50 was at most 0.1 µM. `CC[C@H]1COc2cc(C(=O)NO)ccc2CN1Cc1ccc(OC)cc1` [(S)-3-ethyl-N-hydroxy-4-(4-methoxybenzyl)-2,3,4,5-tetrahydrobenzo[f][1,4]oxazepine-8-carboxamide] gave an IC50 of at most 0.1 µM. `CC[C@H]1COc2cc(C(=O)NO)ccc2CN1c1ccccc1C` [(S)-3-ethyl-N-hydroxy-4-(o-tolyl)-2,3,4,5-tetrahydrobenzo[f][1,4]oxazepine-8-carboxamide] was tested, and the IC50 was at most 0.1 µM. Compound `CC[C@H]1COc2cc(C(=O)NO)ccc2CN1C` [(S)-3-ethyl-N-hydroxy-4-methyl-2,3,4,5-tetrahydrobenzo[f][1,4]oxazepine-8-carboxamide] has an IC50 of at most 0.1 µM. For `CC[C@H]1COc2cc(C(=O)NO)ccc2CN1c1ccccc1` [(S)-3-ethyl-N-hydroxy-4-phenyl-2,3,4,5-tetrahydrobenzo[f][1,4]oxazepine-8-carboxamide], the IC50 was at most 0.1 µM. `C[C@H]1COc2cc(C(=O)NO)ccc2CN1c1ccccc1Cl` [(S)-4-(2-chlorophenyl)-N-hydroxy-3-methyl-2,3,4,5-tetrahydrobenzo[f][1,4]oxazepine-8-carboxamide] showed an IC50 of at most 0.1 µM. Compound `C[C@H]1COc2cc(C(=O)NO)ccc2CN1c1ccccc1F` [(S)-4-(2-fluorophenyl)-N-hydroxy-3-methyl-2,3,4,5-tetrahydrobenzo[f][1,4]oxazepine-8-carboxamide] has an IC50 of at most 0.1 µM. For `C[C@H]1COc2cc(C(=O)NO)ccc2CN1C(=O)N1CCOc2ccccc21` [(S)-4-(3,4-dihydro-2H-benzo[b][1,4]oxazine-4-carbonyl)-N-hydroxy-3-methyl-2,3,4,5-tetrahydrobenzo[f][1,4]oxazepine-8-carboxamide], the IC50 was at most 0.1 µM. With `C[C@H]1COc2cc(C(=O)NO)ccc2CN1c1cccc(F)c1` [(S)-4-(3-fluorophenyl)-N-hydroxy-3-methyl-2,3,4,5-tetrahydrobenzo[f][1,4]oxazepine-8-carboxamide] the IC50 was at most 0.1 µM. With `C[C@H]1COc2cc(C(=O)NO)ccc2CN1c1ccc(Cl)cc1` [(S)-4-(4-chlorophenyl)-N-hydroxy-3-methyl-2,3,4,5-tetrahydrobenzo[f][1,4]oxazepine-8-carboxamide] the IC50 was at most 0.1 µM. Compound `C[C@H]1COc2cc(C(=O)NO)ccc2CN1Cc1ccc(F)cc1` [(S)-4-(4-fluorobenzyl)-N-hydroxy-3-methyl-2,3,4,5-tetrahydrobenzo[f][1,4]oxazepine-8-carboxamide] has an IC50 of at most 0.1 µM.
